The values below come from ChEMBL document CHEMBL5579794, “Improved synthesis and evaluation of preclinical pharmacodynamic parameters of a new monocyclic β-lactam DPI-2016” (Bioorg Med Chem Lett, 2024).

The nature of data set [1]: Stability in rat plasma at 1 uM measured upto 120 mins by LC-MS/MS analysis. In kind it is ADME, cell-free. The conditions noted are these: 2 h.
Data set [2] can be described thus: Plasma protein binding in human at 1 uM incubated for 6 hrs by LC-MS/MS analysis. It is filed as ADME, cell-free.
In another data set the target is T1, Cytochrome P450 1A2 (Homo sapiens, UniProt P05177).
T1 sequence (P05177 whole entry): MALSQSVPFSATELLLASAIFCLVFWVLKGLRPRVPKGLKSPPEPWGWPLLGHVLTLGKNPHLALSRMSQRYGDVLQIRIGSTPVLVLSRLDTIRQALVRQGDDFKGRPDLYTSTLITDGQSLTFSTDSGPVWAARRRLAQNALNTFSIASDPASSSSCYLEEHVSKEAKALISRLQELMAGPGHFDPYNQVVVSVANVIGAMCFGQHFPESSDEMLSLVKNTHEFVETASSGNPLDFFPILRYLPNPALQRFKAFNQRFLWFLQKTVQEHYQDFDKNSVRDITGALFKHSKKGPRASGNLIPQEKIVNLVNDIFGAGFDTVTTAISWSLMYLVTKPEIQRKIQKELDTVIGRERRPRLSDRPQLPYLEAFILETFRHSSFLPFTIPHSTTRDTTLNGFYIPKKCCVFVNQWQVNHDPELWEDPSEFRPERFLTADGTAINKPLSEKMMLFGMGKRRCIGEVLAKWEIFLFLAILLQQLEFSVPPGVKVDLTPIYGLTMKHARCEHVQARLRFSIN
As to the kind of experiment: Inhibition of CYP1A2 (unknown origin) at upto 100 uM. It is filed as ADME.

A short description of data set [3]: Stability in mouse plasma at 1 uM measured upto 120 mins by LC-MS/MS analysis. In kind it is ADME, cell-free. Conditions: 2 h; call rule not given here.
The test system of another data set is Huh-7. Nature of the data set: Cytotoxicity against human Huh-7 cells at 300 ug/ml relative to control. In kind it is toxicity, cell-based. Conditions: at 300 µg/mL.
Data set [4] in a line: Clearance in male Sprague-Dawley rat at 2 mg/kg by LC-MS/MS analysis. It is filed as ADME, organism-based. Conditions: in vivo.
Data set [5] can be described thus: Stability in monkey plasma at 1 uM measured upto 120 mins by LC-MS/MS analysis. The conditions noted are these: rhesus monkey, 2 h. It is filed as ADME, cell-free, Macaca mulatta.
Another data set concerns the target Cytochrome P450 2C9 (Homo sapiens, UniProt P11712). Nature of the data set: Inhibition of CYP2C9 (unknown origin) at upto 100 uM. In kind it is ADME.
A further data set has as its target Cytochrome P450 2C19 (Homo sapiens, UniProt P33261). As to the kind of experiment: Inhibition of CYP2C19 (unknown origin) at upto 100 uM. In kind it is ADME.
Data set [6] is described as follows: Stability in monkey liver microsomes at 1 uM measured up to 60 mins in presence of NADPH by LC-MS/MS analysis. In kind it is ADME, Macaca mulatta, Microsome. The conditions noted are these: rhesus monkey, 1 h. A general note: Liver microsomes are a subcellular fraction often used to study metabolism.
A short description of data set [7]: Stability in mouse liver microsomes at 1 uM measured up to 60 mins in presence of NADPH by LC-MS/MS analysis. In kind it is ADME, Microsome. Conditions: 1 h.
The nature of data set [8]: Stability in human liver microsomes at 1 uM measured up to 60 mins in presence of NADPH by LC-MS/MS analysis. In kind it is ADME, Microsome. The conditions noted are these: 1 h.
Data set [9] can be described thus: Stability in dog plasma at 1 uM measured upto 120 mins by LC-MS/MS analysis. In kind it is ADME, cell-free, Canis lupus familiaris. Conditions: 2 h.
The nature of data set [10]: Stability in rat liver microsomes at 1 uM measured up to 60 mins in presence of NADPH by LC-MS/MS analysis. In kind it is ADME, Microsome. Conditions: 1 h.
Data set [11] is described as follows: Stability in dog microsomes at 1 uM measured up to 60 mins in presence of NADPH by LC-MS/MS analysis. In kind it is ADME, Canis lupus familiaris, Liver, Microsome. The conditions noted are these: 1 h.
A short description of data set [12]: AUC in male Sprague-Dawley rat at 2 mg/kg by LC-MS/MS analysis. In kind it is ADME, organism-based. Conditions: in vivo.
For the next data set, the target named is Cytochrome P450 3A4 (Homo sapiens, UniProt P08684). As to the kind of experiment: Inhibition of CYP3A4 (unknown origin) at upto 100 uM. It is filed as ADME.
The next data set addresses Cytochrome P450 2D6 (Homo sapiens, UniProt P10635). As to the kind of experiment: Inhibition of CYP2D6 (unknown origin) at upto 100 uM. In kind it is ADME.
In a further data set the target is T2, Cytochrome P450 2C8 (Homo sapiens, UniProt P10632).
T2 sequence (P10632 whole entry): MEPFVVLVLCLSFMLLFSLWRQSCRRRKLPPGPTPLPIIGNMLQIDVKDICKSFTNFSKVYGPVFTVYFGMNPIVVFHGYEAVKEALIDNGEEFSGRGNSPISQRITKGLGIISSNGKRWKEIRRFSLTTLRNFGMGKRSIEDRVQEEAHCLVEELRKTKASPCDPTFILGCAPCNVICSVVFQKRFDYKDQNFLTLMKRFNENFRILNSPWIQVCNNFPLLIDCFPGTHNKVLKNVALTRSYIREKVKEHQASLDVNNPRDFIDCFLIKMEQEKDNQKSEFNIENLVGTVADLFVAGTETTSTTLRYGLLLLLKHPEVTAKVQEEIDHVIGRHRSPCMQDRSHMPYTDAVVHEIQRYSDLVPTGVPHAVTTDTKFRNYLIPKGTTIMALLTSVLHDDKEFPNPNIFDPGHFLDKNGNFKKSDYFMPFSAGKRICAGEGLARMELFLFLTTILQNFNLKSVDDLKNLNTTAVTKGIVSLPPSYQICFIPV
As to the kind of experiment: Inhibition of CYP2C8 (unknown origin) at upto 100 uM. It is filed as ADME.

For another data set, the target named is T3, Cytochrome P450 2B6 (Homo sapiens, UniProt P20813).
T3 sequence (P20813 whole entry): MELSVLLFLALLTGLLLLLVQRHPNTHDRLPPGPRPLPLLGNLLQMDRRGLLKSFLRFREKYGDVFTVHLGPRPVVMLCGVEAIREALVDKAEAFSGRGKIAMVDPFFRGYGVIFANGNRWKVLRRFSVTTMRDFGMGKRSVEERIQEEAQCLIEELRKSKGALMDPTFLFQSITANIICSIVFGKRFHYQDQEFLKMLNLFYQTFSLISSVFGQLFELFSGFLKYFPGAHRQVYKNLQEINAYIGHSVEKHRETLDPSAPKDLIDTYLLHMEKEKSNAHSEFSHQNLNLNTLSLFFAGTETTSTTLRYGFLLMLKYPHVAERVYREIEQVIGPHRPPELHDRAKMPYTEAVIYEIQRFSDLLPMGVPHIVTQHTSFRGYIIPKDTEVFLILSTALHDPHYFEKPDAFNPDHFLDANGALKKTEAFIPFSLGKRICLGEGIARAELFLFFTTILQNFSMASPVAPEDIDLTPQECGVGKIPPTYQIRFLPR
Nature of the data set: Inhibition of CYP2B6 (unknown origin) at upto 100 uM. It is filed as ADME.

For a further data set, the system named is H9. As to the kind of experiment: Cytotoxicity against human H9 cells at upto 300 ug/ml relative to control. In kind it is toxicity, cell-based. The conditions noted are these: up to 300 µg/mL.
Data set [13] has as its system Pseudomonas aeruginosa. Nature of the data set: Antibacterial activity against Pseudomonas aeruginosa infected in BalbC mouse model of Septicaemia infection assessed as survival rate at 4 mg/kg administered 30 mins post infection and measured after 3 days relative to control. It is filed as functional. The conditions noted are these: 72 h, time 3 day.
In data set [14] the test system is Pseudomonas aeruginosa. Nature of the data set: Antibacterial activity against Pseudomonas aeruginosa infected in BalbC mouse model of Septicaemia infection assessed as survival rate at 64 mg/kg administration starting at 0.5 to 2 hrs post infection and measured after 2 days relative to control. In kind it is functional. The conditions noted are these: 48 h, time 2 day.

The test system of data set [15] is Pseudomonas aeruginosa. Nature of the data set: Antibacterial activity against Pseudomonas aeruginosa infected in BalbC mouse model of Septicaemia infection assessed as survival rate at 64 mg/kg administration starting at 0.5 to 2 hrs post infection and measured after 4 days relative to control. In kind it is functional. The conditions noted are these: 96 h, time 4 day.

Chain of Cytochrome P450 3A4 (P08684 whole entry): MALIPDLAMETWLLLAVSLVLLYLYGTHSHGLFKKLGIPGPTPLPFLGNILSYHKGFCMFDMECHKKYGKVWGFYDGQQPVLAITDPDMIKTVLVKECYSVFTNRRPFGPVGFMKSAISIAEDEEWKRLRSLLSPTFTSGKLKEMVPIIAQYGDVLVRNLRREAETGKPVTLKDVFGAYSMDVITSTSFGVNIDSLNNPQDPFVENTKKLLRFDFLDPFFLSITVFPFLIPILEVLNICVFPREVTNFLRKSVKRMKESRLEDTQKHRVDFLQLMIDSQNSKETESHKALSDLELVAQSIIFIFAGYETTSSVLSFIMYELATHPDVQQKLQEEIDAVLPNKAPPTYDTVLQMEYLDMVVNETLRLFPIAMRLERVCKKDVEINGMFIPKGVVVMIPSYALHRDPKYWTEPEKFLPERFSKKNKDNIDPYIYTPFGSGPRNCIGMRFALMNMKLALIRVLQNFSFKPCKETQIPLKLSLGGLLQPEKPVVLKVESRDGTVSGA
Chain of Cytochrome P450 2C9 (P11712 whole entry): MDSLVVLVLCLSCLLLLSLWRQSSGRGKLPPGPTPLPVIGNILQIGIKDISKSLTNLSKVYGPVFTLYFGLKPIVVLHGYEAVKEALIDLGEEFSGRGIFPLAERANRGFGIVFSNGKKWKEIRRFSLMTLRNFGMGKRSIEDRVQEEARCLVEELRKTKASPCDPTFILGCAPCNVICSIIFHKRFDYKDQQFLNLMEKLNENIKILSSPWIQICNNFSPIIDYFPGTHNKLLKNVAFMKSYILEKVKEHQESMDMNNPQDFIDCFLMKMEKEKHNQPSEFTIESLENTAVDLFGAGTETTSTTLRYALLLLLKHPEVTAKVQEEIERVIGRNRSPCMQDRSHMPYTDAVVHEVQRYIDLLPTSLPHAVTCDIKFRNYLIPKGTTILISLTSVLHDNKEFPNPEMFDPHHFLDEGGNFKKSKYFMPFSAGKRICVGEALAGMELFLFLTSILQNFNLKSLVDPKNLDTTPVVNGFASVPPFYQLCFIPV
Chain of Cytochrome P450 2D6 (P10635 whole entry): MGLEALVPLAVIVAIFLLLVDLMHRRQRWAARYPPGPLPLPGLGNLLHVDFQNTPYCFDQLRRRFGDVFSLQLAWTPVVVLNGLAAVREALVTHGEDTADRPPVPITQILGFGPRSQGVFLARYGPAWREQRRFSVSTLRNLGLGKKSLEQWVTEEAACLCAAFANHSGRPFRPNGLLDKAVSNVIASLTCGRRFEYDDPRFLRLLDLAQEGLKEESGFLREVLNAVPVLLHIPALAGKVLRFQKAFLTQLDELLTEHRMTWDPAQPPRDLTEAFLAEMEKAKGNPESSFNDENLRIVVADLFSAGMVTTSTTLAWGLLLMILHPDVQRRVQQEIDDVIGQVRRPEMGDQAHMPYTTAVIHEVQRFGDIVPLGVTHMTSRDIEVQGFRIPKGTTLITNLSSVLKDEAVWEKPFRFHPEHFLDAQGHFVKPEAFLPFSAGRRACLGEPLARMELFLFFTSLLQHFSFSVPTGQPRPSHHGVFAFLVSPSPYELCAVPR
Chain of Cytochrome P450 2C19 (P33261 whole entry): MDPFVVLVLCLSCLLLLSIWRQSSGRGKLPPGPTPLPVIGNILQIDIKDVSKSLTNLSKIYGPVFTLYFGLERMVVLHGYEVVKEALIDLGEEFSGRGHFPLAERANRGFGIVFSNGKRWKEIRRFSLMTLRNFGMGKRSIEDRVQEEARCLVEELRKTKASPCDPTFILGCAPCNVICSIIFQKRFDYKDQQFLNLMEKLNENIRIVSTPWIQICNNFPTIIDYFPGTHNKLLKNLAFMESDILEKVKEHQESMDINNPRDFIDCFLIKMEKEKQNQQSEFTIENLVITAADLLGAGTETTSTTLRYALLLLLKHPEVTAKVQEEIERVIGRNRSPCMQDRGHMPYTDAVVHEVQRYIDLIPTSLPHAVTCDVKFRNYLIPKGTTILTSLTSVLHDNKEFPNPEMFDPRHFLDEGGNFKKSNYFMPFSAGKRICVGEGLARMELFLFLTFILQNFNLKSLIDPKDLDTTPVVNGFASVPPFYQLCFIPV

For `Cc1sc(N)nc1/C(=N/O[C@@H](COc1ccc(C(=N)N[C@@H]2CCNC2)cc1)C(=O)O)C(=O)N[C@@H]1C(=O)N(OS(=O)(=O)O)C1(C)C`, the Stability entry in data set [1], in data set [3], in data set [5], in [6], in data set [7] and in data set [8] was “Stable” each time. For the same molecule, the Stability entry in [9], in data set [10] and in data set [11] was “Stable” in each case. Also, in [2] (read-out: PPB (converted)), the fraction unbound at 6 h, 1 µM was 0.383. The “inhibition (INH)” value against Cytochrome P450 1A2, against Cytochrome P450 2C9, against Cytochrome P450 2C19, against Cytochrome P450 3A4, against Cytochrome P450 2D6 and on Cytochrome P450 2C8 was “Not Active” throughout. Further, the “inhibition (INH)” value at Cytochrome P450 2B6 is on record as “Not Active”. Besides, the Activity was 60% in the data set with Huh-7 and more than 80% in the data set with H9. Further, the clearance (as a rule, the rate of elimination divided by the concentration) in data set [4] was 12.5 mL/min/kg. Further, in data set [12], the AUC (usually concentration integrated over time) was found to be 2790 ng·h/mL. Moreover, in the data set with Pseudomonas aeruginosa [13], the survival at 4 mg/kg was 30%.
With `C[C@H]1[C@H](NC(=O)/C(=N\OC(C)(C)C(=O)O)c2csc(N)n2)C(=O)N1S(=O)(=O)O` [AZTREONAM], the Stability result is reported as “Stable” in data set [1]; “Stable” in data set [2] (6 h, 1 µM); “Stable” in [3]; “Stable” in [5]; “Stable” in [6]; “Stable” in [7]. Also, the Stability entry in data set [8], in data set [9], in data set [10] and in [11] was “Stable” each time. Besides, the “inhibition (INH)” value against Cytochrome P450 1A2, on Cytochrome P450 2C9, against Cytochrome P450 2C19, against Cytochrome P450 3A4, on Cytochrome P450 2D6 and against Cytochrome P450 2C8 was “Not Active” in each case. Moreover, the “inhibition (INH)” value at Cytochrome P450 2B6 is listed as “Not Active”. Moreover, in the data set with Huh-7, the Activity turned out to be 60%. Moreover, the survival at 64 mg/kg with Pseudomonas aeruginosa [14] and in the data set on Pseudomonas aeruginosa [15] was 60% throughout. Also, the area under the curve (AUC) in data set [12] was 2410 ng·h/mL.
